From patent US20260248923A1, “BI-SPECIFIC ADAPTERS AND THEIR USE WITH UNIVERSAL CAR-T CELLS IN THE TREATMENT OF TUMORS AND THE INHIBITION OF CANCER-ASSOCIATED FIBROBLASTS” (priority 2023, published 2026)
Read-outs that look alike come from different tables or passages of the source.

Legend:
[1] = test system: MDA-PSMA tumors (high PSMA level); assay: MDA-PSMA tumor in NSG mice with anti-FITC CAR T-cells; conditions: for eradication of MDA-PSMA tumors: 10 million anti-FITC CAR T-cells
Experimental: MDA-PSMA cells (high PSMA level; 5 million cells) were implanted into each NSG mouse by subcutaneous injection. […] The tumor volume and body weight were monitored regularly. Tumor volume was calculated using the formula: (length*width^2)/2. […] MDA-PSMA cells (5 million) were implanted into each NSG mouse by subcutaneous injection. […] The volumes of the tumors and the body weights of the mice were monitored regularly. Tumor volume was calculated using the formula: (length*width^2)/2.

22Rv1 tumor = 22Rv1 tumor in NSG mice with anti-FITC CAR T cells; assay type: in vivo; conditions: 10 million anti-FITC CAR T cells
[2] = test system: MDA-MB-231-PSMA tumor cells; conditions: mouse, in vivo
Experimental: (§3) The mice were euthanized at the indicated time points after injection. Tumors were dissected and dissociated into single cells. Fluorescent intensity of FITC indicating the total retention of the adapters in the tumor cells were analyzed by flow cytometry. To analyze the surface retention of the adapters on the tumor cell surface, the dissociated tumor cells were stained with APC-anti-FITC antibody, and the fluorescent intensity of APC was analyzed by flow cytometry.

PSMA [3] = molecular target: T1, PSMA (Homo sapiens, UniProt Q04609); assay: Binding to MDA-PSMA cells by flow cytometry (MFI of FITC)
T1 construct: expressed in transfected cells; host or cells: MDA-MB-231 (MDA-PSMA / PSMA+ MDA-MB-231)
Experimental: (§1) MDA-PSMA cells (0.2 million) were incubated with 2-fold serial diluted adapters starting from 500 nM in complete RPMI medium (RPMI+10% FBS) for 1 hour at room temperature. Cells were washed twice with 2% FBS in PBS and resuspended in the same buffer. Fluorescent intensity of fluorescein isothiocyanate (FITC) was analyzed by flow cytometer.
MDA-PSMA cells (0.2 million) were incubated with 1 μM of DUPA-FITC conjugates with different PEG linkers in complete RPMI medium (RPMI+10% FBS) for 1 hour at room temperature. Free compounds were washed away, and fluorescent intensity of FITC was analyzed by flow cytometer. To analyze the surface exposure of FITC moiety, the stained cells were incubated with APC-anti-FITC on ice for 30 minutes.
as §1, with “FITC” for “fluorescein isothiocyanate (FITC)”

22Rv1 cells [4] = assay: 22Rv1 / anti-FITC CAR T co-culture, 48 hours; assay type: cell-based
Experimental: The number of 22Rv1 cells was counted at the end of the co-culture. The cytotoxicity of anti-FITC CAR T cells was calculated using the formula: (number of untreated 22Rv1 cells−number of treated 22Rv1 cells)/number of untreated 22Rv1 cells*100%. Concentrations of IFNγ in the co-culture medium were analyzed by ELISA using human IFNγ ELISA kit (Biolegend).

MDA-PSMA cells = assay: Retention in MDA-PSMA cells in vitro (confocal, flow cytometry); assay type: cell-based; conditions: 1 μM one hour, washed, 37 C
Experimental: (§2) Unbound compounds were washed away, and the cells were cultured in RPMI containing 10% FBS at 37° C. with 5% CO2. At indicated time points, the cells were imaged under a confocal microscope to analyze the intensity and location of FITC. […] To analyze the surface-bound FITC, the cells were stained with APC-anti-FITC antibody for 30 minutes on ice at different time points. The fluorescence intensity of APC was analyzed by flow cytometer.

22Rv1 cells [5] = assay: Retention in 22Rv1 cells in vitro; assay type: cell-based; conditions: 1 μM one hour, washed, 37 C
Experimental: as §2

MDA-MB-231-PSMA tumors = assay: Fluorescent imaging of MDA-PSMA tumor bearing mice; assay type: in vivo; conditions: 500 nmol/kg intravenously
From the text: MDA-PSMA tumor bearing mice were intravenously injected with the indicated adapters at 500 nmol/kg. Fluorescent images of the mice were taken in the Spectral Ami imaging system at the indicated time points after injection.

[6] = test system: TagCAR (universal anti-fluorescein CAR); assay: Competition assay against FL-AF647 on TagCAR T cells; assay type: binding; conditions: Ki=IC50/(1+[S]/Km), [FL-AF647]=100 nM, triplicates from different donors; read-out: mean calculated inhibitor constant (Ki)
Experimental: PSMAL1-PEG6-FITC strongly binds to TagCAR T cells generated using TagCAR lentiviral particles. […] Due to fluorescein fluorescence being quenched when bound by TagCAR, TagCAR T cells were instead incubated with saturating levels of FL-AF647, which was then competed off by increasing concentrations of PSMAL1-PEG6-FITC. As compared to the antigen-only control sodium fluorescein (NaFL), lower concentrations of PSMAL1-PEG6-FITC were necessary to compete with FL-AF647, as detected by the mean fluorescent intensity (MFI) of FL-AF647.

PSMA [7] = molecular target: T1, PSMA; assay: SurfaceTag on-cell binding to PSMA+ MDA-MB-231 tumor cells
Experimental: PSMAL1-PEG6-FITC strongly localizes on the surface of PSMA-positive tumor cells. To characterize the on-cell binding affinity of PSMAL1-PEG6-FITC to PSMA-expressing tumor cells, different concentrations of PSMAL1-PEG6-FITC were incubated with […] tumor cells that either over-expressed PSMA (PSMA^+) or were wildtype (PSMA−). Levels of surface fluorescein antigen on MDA-MB-321 tumor cells were detected using an anti-fluorescein antibody (FIG. 44A).

[8] = test system: PSMA+ MDA-MB-231 tumor cells; assay: TagCAR T cell coculture with PSMA-overexpressing MDA-MB-231 tumor cells; assay type: cell-based
Experimental: PSMAL1-PEG6-FITC elicits dose-dependent TagCAR T cell function in vitro. The efficacy of TagCAR T cells generated as described in Example 42 mediated by PSMAL1-PEG6-FITC on PSMA-positive tumor cells was investigated in vitro. The normalized fold tumor cell growth of PSMA-overexpressing (PSMA^+) MDA-MB-231 tumor cells was measured every four hours during an 88-hour coculture of PSMA^+ MD-MB-231 tumor cells and different concentrations of PSMAL1-PEG6-FITC in the presence of TagCAR T cells generated as described in Example 42.
In addition, cytokine levels were measured in culture supernatants 24 hours following the addition of TagCAR T cells generated as described in Example 42 and different concentrations of PSMAL1-PEG6-FITC to PSMA MD-MB-231 tumor cells.
The presence of TagCAR+ cells (FIG. 45C) and presence of CD25+(FIG. 45D) in CD3+ T cells were also measured after 88 hours of coculture with PSMA^+ MDA-MB-231 tumor cells with different concentrations of PSMAL1-PEG6-FITC. CD3+ T cells with TagCAR had higher percentages of CD25+ as compared to CD3+ T cells without TagCAR.

[9] = test system: MDA-MB-231-PSMA tumor cells; assay: Total and surface retention of adapters on MDA-PSMA tumor cells in vivo (flow cytometry)
Experimental: as §3

T1 sequence (Q04609 whole entry): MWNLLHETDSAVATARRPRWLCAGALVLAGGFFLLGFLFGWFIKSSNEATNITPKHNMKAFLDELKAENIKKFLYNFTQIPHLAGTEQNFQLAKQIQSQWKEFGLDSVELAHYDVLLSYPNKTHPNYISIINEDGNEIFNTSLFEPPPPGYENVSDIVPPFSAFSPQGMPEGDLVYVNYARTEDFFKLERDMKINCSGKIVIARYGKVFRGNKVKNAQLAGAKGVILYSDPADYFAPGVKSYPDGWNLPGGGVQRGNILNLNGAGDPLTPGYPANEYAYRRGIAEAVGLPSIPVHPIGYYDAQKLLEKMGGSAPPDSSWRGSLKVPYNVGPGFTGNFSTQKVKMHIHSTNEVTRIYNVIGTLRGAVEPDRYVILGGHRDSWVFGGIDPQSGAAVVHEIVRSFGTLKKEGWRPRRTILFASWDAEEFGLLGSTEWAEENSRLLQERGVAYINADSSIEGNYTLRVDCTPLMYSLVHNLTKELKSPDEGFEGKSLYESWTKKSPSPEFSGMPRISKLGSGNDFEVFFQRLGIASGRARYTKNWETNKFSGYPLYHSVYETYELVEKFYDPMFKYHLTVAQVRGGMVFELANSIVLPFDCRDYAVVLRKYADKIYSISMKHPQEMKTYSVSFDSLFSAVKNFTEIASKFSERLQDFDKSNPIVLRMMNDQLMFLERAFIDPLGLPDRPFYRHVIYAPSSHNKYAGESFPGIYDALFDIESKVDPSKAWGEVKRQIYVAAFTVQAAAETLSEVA

CC(C)(C)OC(=O)CC[C@H](NC(=O)N[C@@H](CCC(=O)OCc1ccccc1)C(=O)OC(C)(C)C)C(=O)OC(C)(C)C (stereo in doubt) [DUPA-PEG6-FITC, 2-[3-(3-Benzyloxycarbonyl-1-tert-butoxycarbonyl-propyl)-ureido]pentanedioic Acid Di tert-butyl Ester]
eradication of MDA-PSMA tumors [1]: good efficacy on eliminating MDA-PSMA tumors | body weight loss ([1]; mouse, in vivo): no body weight loss was observed | growth of 22Rv1 tumor (22Rv1 tumor): didn't show much efficacy | tumor cells that retained adapter on the surface [2]: 9% | tumor cells that still had adapter in the cells (total FITC) [2]: 13%

O=C(O)CC[C@H](NC(=O)N[C@@H](CCCCNC(=O)[C@H](Cc1ccc2ccccc2c1)NC(=O)[C@H]1CC[C@H](CNC(=O)CCOCCOCCOCCOCCOCCOCCNC(=S)Nc2ccc(-c3c4ccc(=O)cc-4oc4cc(O)ccc34)c(C(=O)O)c2)CC1)C(=O)O)C(=O)O [PSMAL1-PEG6-FITC]
binding affinity relative to DUPA-PEG6-FITC (PSMA [3]): five-fold higher | binding affinity and total binding (MFI of FITC) (PSMA [3]; 1 hour room temperature): Higher Binding Affinity and Higher Total Binding than DUPA-PEG6-FITC | lysis of 22Rv1 cells by anti-FITC CAR-T cells (22Rv1 cells [4]; low concentration): much higher than DUPA-PEG6-FITC at low concentration | IFNγ secreted by anti-FITC CAR-T cells (22Rv1 cells [4]; low concentrations): higher than DUPA-PEG6-FITC at low concentrations | eradication of MDA-PSMA tumors [1]: good efficacy on eliminating MDA-PSMA tumors | body weight loss ([1]; during treatment): no body weight loss was observed | retention in MDA-MB-231-PSMA cells (confocal images) (MDA-PSMA cells): stayed longer in MDA-MB-231-PSMA cells than DUPA-PEG6-FITC | retention in MDA-PSMA cells expressing different levels of PSMA (flow cytometry) (MDA-PSMA cells): stayed longer in MDA-PSMA cells expressing different levels of PSMA than DUPA-PEG6-FITC | retention in 22Rv1 cells (flow cytometry) (22Rv1 cells [5]): stayed longer in 22Rv1 cells | retention in MDA-MB-231-PSMA tumors (fluorescent images) (MDA-MB-231-PSMA tumors): Better Retention in MDA-MB-231-PSM4 Tumors than DUPA-PEG6-FITC and DUPA-FITC | growth of 22Rv1 tumor (22Rv1 tumor): inhibited the growth of 22Rv1 tumor significantly | Ki [6]: 9.9 nM | Bmax (total antigen amount) (PSMA [7]; PSMA+ tumor cells): 2.6×10^6 MFI | Kd (PSMA [7]; PSMA+ tumor cells, anti-fluorescein antibody, read-out: Kd (on-cell binding affinity)): 1.29 nM | localization on surface of PSMA-expressing tumor cells (PSMA [7]; PSMA+ vs PSMA- cells): specifically localized on the surface of PSMA-expressing tumors | normalized fold tumor cell growth ([8]; 88-hour coculture with TagCAR T cells): tumor size decreased | IFNg and IL-2 levels in culture supernatants ([8]; 24 hours): increased with increasing doses | tumor cells that retained adapter on the surface ([9]; 48 hours post-injection): 65% | tumor cells that still had adapter in the cells (total FITC) ([9]; 48 hours post-injection): 77% | tumor cells that retained adapter (total FITC) ([9]; 144 hours post-injection): 45% | tumor cells that retained adapter on the surface ([9]; 144 hours post-injection): 34%
